{
  "source": "patent US20170246586A1",
  "about": "“PROCESS AND APPARATUS FOR SEPARATING ENTRAINED AMINES FROM A GAS STREAM” (Carbonoro B.V., priority 2014, published 2017)",
  "key": {"[1]": {"assay": "amine content of the aqueous phase after phase separation of heated MCA/DMCA mixture in water", "assay_type": "physicochemical", "settings": "3 M MCA:DMCA 1:3 wt./wt. in water, phases separated", "method": "Aqueous samples containing MCA and/or DMCA were analysed by UPLC-MS/MS. The UPLC apparatus was a Waters ACQUITY° system. Injection volume was 3 μl. Mobile phase A: 10 mM ammonium acetate, 0.1 wt. % formic acid in water. Mobile phase B: methanol. Column: ACQUITY UPLC® HSB T3, 1.8 μ2.1×50 mm. Column temperature: 30° C. Gradient (Table 1). The mass spectrometer was an AB SCIEX™ API 3200 apparatus.\nA mixture (200 ml) of MCA and DMCA (total amine concentration is 3 M; ratio MCA:DMCA is 1:3 wt./wt.≈1:2.67 mol/mol; total absolute amount MCA is 92.8 g/l; total amount of DMCA is 278.4 g/l) in water was heated at various temperatures for 24 h during which phase separation occurred. The phases were separated and the aqueous phase was analysed for determining the amine content. As can be observed from the data in Table 9, the amount of amine decreases with increasing temperature."}, "[2]": {"settings": "20° C.; cited from earlier work"}, "[3]": {"assay": "Water solubility (20° C.)", "assay_type": "physicochemical"}, "[4]": {"settings": "J. Sangster, J. Phys. Chem. Ref. Data 18, 111, 1989; cited from earlier work"}},
  "data": [
    {"smiles": "CNC1CCCCC1", "note": "[MCA, N-methylcyclohexylamine]", "values": [
      {"measurement": "amine content of aqueous phase (MCA)", "setting": "[1]; heated 24 h at 40 ° C.", "result": 6940, "unit": "mg/L"},
      {"measurement": "amine content of aqueous phase (MCA)", "setting": "[1]; heated 24 h at 50 ° C.", "result": 5630, "unit": "mg/L"},
      {"measurement": "amine content of aqueous phase (MCA)", "setting": "[1]; heated 24 h at 60 ° C.", "result": 5090, "unit": "mg/L"},
      {"measurement": "amine content of aqueous phase (MCA)", "setting": "[1]; heated 24 h at 70 ° C.", "result": 4520, "unit": "mg/L"}
    ]},
    {"smiles": "CN(C)C1CCCCC1", "note": "[DMCA, N,N-dimethylcyclohexylamine]", "values": [
      {"measurement": "Water solubility", "setting": "[2]", "result": 54, "unit": "mg/mL"},
      {"measurement": "solubility", "setting": "[3]", "result": "~480", "unit": "mM"}
    ]},
    {"smiles": "NC1CCCCC1", "note": "[cyclohexylamine]", "values": [
      {"measurement": "measured log P", "setting": "[4]", "result": "1.49±0.10"}
    ]}
  ]
}
